Results reported in ChEMBL document CHEMBL2034905, “Synthesis of benzimidazolyl-1,3,4-oxadiazol-2ylthio-N-phenyl (benzothiazolyl) acetamides as antibacterial, antifungal and antituberculosis agents” (Eur J Med Chem, 2012).
Converted amounts (≈) assume the structure as drawn.

Legend:
[1] = system: Proteus vulgaris; test: Antibacterial activity against Proteus vulgaris MTCC 1771 by agar streak dilution method; format: functional
[2] = system: Staphylococcus aureus; test: Antibacterial activity against Staphylococcus aureus MTCC 96 by agar streak dilution method; format: functional
[3] = system: Salmonella typhi; test: Antibacterial activity against Salmonella typhi MTCC 733 by agar streak dilution method; format: functional, Salmonella enterica subsp. enterica serovar Typhi; conditions: Salmonella enterica
[4] = system: Salmonella typhi; test: Antibacterial activity against Salmonella typhi MTCC 733 at 100 ug/disc by paper disc diffusion technique; format: functional, Salmonella enterica subsp. enterica serovar Typhi; conditions: Salmonella enterica, read-out: IZ
[5] = system: Mycobacterium tuberculosis; test: Antituberculosis activity against Mycobacterium tuberculosis H37Rv at 6.25 ug/ml by BACTEC MGIT method; format: functional
[6] = Lipophilicity, log P of the compound; format: physicochemical; conditions: octanol/water
[7] = system: Aspergillus clavatus; test: Antifungal activity against Aspergillus clavatus MTCC 1323 by agar streak dilution method; format: functional
[8] = system: Proteus vulgaris; test: Antibacterial activity against Proteus vulgaris MTCC 1771 at 100 ug/disc by paper disc diffusion technique; format: functional; conditions: read-out: IZ
[9] = system: Shigella flexneri; test: Antibacterial activity against Shigella flexneri MTCC 1457 by agar streak dilution method; format: functional
[10] = system: Aspergillus niger; test: Antifungal activity against Aspergillus niger MTCC 282 at 100 ug/disc by paper disc diffusion technique; format: functional; conditions: read-out: IZ
[11] = system: Aspergillus fumigatus; test: Antifungal activity against Aspergillus fumigatus MTCC 343 by agar streak dilution method; format: functional
[12] = system: Candida albicans; test: Antifungal activity against Candida albicans MTCC 183 by agar streak dilution method; format: functional
[13] = system: Escherichia coli; test: Antibacterial activity against Escherichia coli MTCC 739 by agar streak dilution method; format: functional
[14] = system: Pseudomonas aeruginosa; test: Antibacterial activity against Pseudomonas aeruginosa MTCC 741 by agar streak dilution method; format: functional
[15] = system: Aspergillus clavatus; test: Antifungal activity against Aspergillus clavatus MTCC 1323 at 100 ug/disc by paper disc diffusion technique; format: functional; conditions: read-out: IZ
[16] = system: Aspergillus fumigatus; test: Antifungal activity against Aspergillus fumigatus MTCC 343 at 100 ug/disc by paper disc diffusion technique; format: functional; conditions: read-out: IZ
[17] = system: Aspergillus niger; test: Antifungal activity against Aspergillus niger MTCC 282 by agar streak dilution method; format: functional
[18] = system: Klebsiella pneumoniae; test: Antibacterial activity against Klebsiella pneumoniae MTCC 109 at 100 ug/disc by paper disc diffusion technique; format: functional; conditions: read-out: IZ
[19] = system: Mycobacterium tuberculosis; test: Antituberculosis activity against Mycobacterium tuberculosis H37Rv by BACTEC MGIT method; format: functional
[20] = system: Bacillus cereus; test: Antibacterial activity against Bacillus cereus MTCC 430 at 100 ug/disc by paper disc diffusion technique; format: functional; conditions: read-out: IZ
[21] = system: Bacillus cereus; test: Antibacterial activity against Bacillus cereus MTCC 430 by agar streak dilution method; format: functional
[22] = system: Mycobacterium tuberculosis; test: Antituberculosis activity against Mycobacterium tuberculosis H37Rv at 6.25 ug/ml by Lowenstein-Jensen method; format: functional
[23] = system: Pseudomonas aeruginosa; test: Antibacterial activity against Pseudomonas aeruginosa MTCC 741 at 100 ug/disc by paper disc diffusion technique; format: functional; conditions: read-out: IZ
[24] = system: Klebsiella pneumoniae; test: Antibacterial activity against Klebsiella pneumoniae MTCC 109 by agar streak dilution method; format: functional
[25] = system: Mycobacterium tuberculosis; test: Antituberculosis activity against Mycobacterium tuberculosis H37Rv by Lowenstein-Jensen method; format: functional
[26] = system: Escherichia coli; test: Antibacterial activity against Escherichia coli MTCC 739 at 100 ug/disc by paper disc diffusion technique; format: functional; conditions: read-out: IZ
[27] = system: Candida albicans; test: Antifungal activity against Candida albicans MTCC 183 at 100 ug/disc by paper disc diffusion technique; format: functional; conditions: read-out: IZ
[28] = system: Staphylococcus aureus; test: Antibacterial activity against Staphylococcus aureus MTCC 96 at 100 ug/disc by paper disc diffusion technique; format: functional; conditions: read-out: IZ
[29] = system: Shigella flexneri; test: Antibacterial activity against Shigella flexneri MTCC 1457 at 100 ug/disc by paper disc diffusion technique; format: functional; conditions: read-out: IZ

| SMILES | MIC [1] [µg/mL] | MIC [2] [µg/mL] | MIC [3] [µg/mL] | zone of inhibition at 100 µg/disc [4] [mm] | logP [6] | MIC [7] [µg/mL] | zone of inhibition at 100 µg/disc [8] [mm] | MIC [9] [µg/mL] | zone of inhibition at 100 µg/disc [10] [mm] | MIC [11] [µg/mL] | MIC [12] [µg/mL] | MIC [13] [µg/mL] | MIC [14] [µg/mL] | zone of inhibition at 100 µg/disc [15] [mm] | zone of inhibition at 100 µg/disc [16] [mm] | MIC [17] [µg/mL] | zone of inhibition at 100 µg/disc [18] [mm] | MIC [19] [µg/mL] | zone of inhibition at 100 µg/disc [20] [mm] | MIC [21] [µg/mL] | also measured |
| --- | --- | --- | --- | --- | --- | --- | --- | --- | --- | --- | --- | --- | --- | --- | --- | --- | --- | --- | --- | --- | --- |
| COc1ccc(NC(=O)CSc2nnc(Cn3cnc4ccccc43)o2)cc1 | 25 (≈ 63.2 µM) | 100 (≈ 253 µM) | 50 (≈ 126 µM) | 20 | 2.37 | 100 (≈ 253 µM) | 21 | 50 (≈ 126 µM) | 16 | 100 (≈ 253 µM) | 50 (≈ 126 µM) | 50 (≈ 126 µM) | 50 (≈ 126 µM) | < 10 | 10 | 100 (≈ 253 µM) | 11 | 6.25 (≈ 15.8 µM) | 18 | 50 (≈ 126 µM) | inhibition at 6.25 µg/mL [5]: 99%; inhibition at 6.25 µg/mL [22]: 99%; zone of inhibition at 100 µg/disc [23]: 21 mm; MIC [24]: 100 µg/mL (≈ 253 µM); MIC [25]: 6.25 µg/mL (≈ 15.8 µM); zone of inhibition at 100 µg/disc [26]: 20 mm; zone of inhibition at 100 µg/disc [27]: 22 mm; zone of inhibition at 100 µg/disc [28]: 13 mm; zone of inhibition at 100 µg/disc [29]: 19 mm |
| N#Cc1ccc2nc(NC(=O)CSc3nnc(Cn4cnc5ccccc54)o3)sc2c1 | 50 (≈ 112 µM) | 6.25 (≈ 14 µM) | 100 (≈ 223 µM) | 17 | 3.72 | 100 (≈ 223 µM) | 19 | 50 (≈ 112 µM) | 18 | 50 (≈ 112 µM) | 100 (≈ 223 µM) | 25 (≈ 55.9 µM) | 50 (≈ 112 µM) | 18 | 22 | 50 (≈ 112 µM) | 25 | > 6.25 | 22 | 50 (≈ 112 µM) | inhibition at 6.25 µg/mL [22]: 95%; zone of inhibition at 100 µg/disc [23]: 15 mm; MIC [24]: 25 µg/mL (≈ 55.9 µM); MIC [25]: 100 µg/mL (≈ 223 µM); zone of inhibition at 100 µg/disc [26]: 24 mm; zone of inhibition at 100 µg/disc [27]: 13 mm; zone of inhibition at 100 µg/disc [28]: 24 mm; zone of inhibition at 100 µg/disc [29]: 21 mm |
| Cc1ccc2nc(NC(=O)CSc3nnc(Cn4cnc5ccccc54)o3)sc2c1 | 50 (≈ 115 µM) | 50 (≈ 115 µM) | 100 (≈ 229 µM) | 11 | 4.18 | 100 (≈ 229 µM) | 20 | 100 (≈ 229 µM) | 12 | 100 (≈ 229 µM) | 100 (≈ 229 µM) | 100 (≈ 229 µM) | 100 (≈ 229 µM) | 12 | < 10 | 100 (≈ 229 µM) | 18 | > 6.25 | 19 | 50 (≈ 115 µM) | inhibition at 6.25 µg/mL [22]: 97%; zone of inhibition at 100 µg/disc [23]: 15 mm; MIC [24]: 100 µg/mL (≈ 229 µM); MIC [25]: 200 µg/mL (≈ 458 µM); zone of inhibition at 100 µg/disc [26]: 12 mm; zone of inhibition at 100 µg/disc [27]: 15 mm; zone of inhibition at 100 µg/disc [28]: 15 mm; zone of inhibition at 100 µg/disc [29]: 14 mm |
| COc1ccc2nc(NC(=O)CSc3nnc(Cn4cnc5ccccc54)o3)sc2c1 | 12.5 (≈ 27.6 µM) | 25 (≈ 55.2 µM) | 50 (≈ 110 µM) | 20 | 3.56 | 50 (≈ 110 µM) | 26 | 6.25 (≈ 13.8 µM) | 17 | 100 (≈ 221 µM) | 25 (≈ 55.2 µM) | 50 (≈ 110 µM) | 100 (≈ 221 µM) | 22 | < 10 | 50 (≈ 110 µM) | 21 | > 6.25 | 20 | 50 (≈ 110 µM) | inhibition at 6.25 µg/mL [22]: 99%; zone of inhibition at 100 µg/disc [23]: 12 mm; MIC [24]: 50 µg/mL (≈ 110 µM); MIC [25]: 12.5 µg/mL (≈ 27.6 µM); zone of inhibition at 100 µg/disc [26]: 18 mm; zone of inhibition at 100 µg/disc [27]: 25 mm; zone of inhibition at 100 µg/disc [28]: 19 mm; zone of inhibition at 100 µg/disc [29]: 24 mm |
| CCOc1ccc2nc(NC(=O)CSc3nnc(Cn4cnc5ccccc54)o3)sc2c1 | 12.5 (≈ 26.8 µM) | 12.5 (≈ 26.8 µM) | 50 (≈ 107 µM) | 19 | 3.9 | 100 (≈ 214 µM) | 26 | 50 (≈ 107 µM) | 20 | 100 (≈ 214 µM) | 25 (≈ 53.6 µM) | 25 (≈ 53.6 µM) | 50 (≈ 107 µM) | 17 | 13 | 25 (≈ 53.6 µM) | 21 | > 6.25 | 21 | 50 (≈ 107 µM) | inhibition at 6.25 µg/mL [22]: 99%; zone of inhibition at 100 µg/disc [23]: 18 mm; MIC [24]: 50 µg/mL (≈ 107 µM); MIC [25]: 50 µg/mL (≈ 107 µM); zone of inhibition at 100 µg/disc [26]: 24 mm; zone of inhibition at 100 µg/disc [27]: 26 mm; zone of inhibition at 100 µg/disc [28]: 22 mm; zone of inhibition at 100 µg/disc [29]: 19 mm |
| CC(=O)Nc1ccc2nc(NC(=O)CSc3nnc(Cn4cnc5ccccc54)o3)sc2c1 | 12.5 (≈ 26.1 µM) | 50 (≈ 104 µM) | 100 (≈ 209 µM) | 16 | 2.6 | 50 (≈ 104 µM) | 24 | 100 (≈ 209 µM) | 24 | 100 (≈ 209 µM) | 50 (≈ 104 µM) | 50 (≈ 104 µM) | 100 (≈ 209 µM) | 23 | < 10 | 12.5 (≈ 26.1 µM) | 20 | > 6.25 | 16 | 100 (≈ 209 µM) | inhibition at 6.25 µg/mL [22]: 98%; zone of inhibition at 100 µg/disc [23]: < 10 mm; MIC [24]: 50 µg/mL (≈ 104 µM); MIC [25]: 50 µg/mL (≈ 104 µM); zone of inhibition at 100 µg/disc [26]: 20 mm; zone of inhibition at 100 µg/disc [27]: 23 mm; zone of inhibition at 100 µg/disc [28]: 19 mm; zone of inhibition at 100 µg/disc [29]: 16 mm |
| CC[C@@H](CO)NCCN[C@@H](CC)CO [ETHAMBUTOL] | – | – | – | – | – | – | – | – | – | – | – | – | – | – | – | – | – | 3.12 (≈ 15.3 µM) | – | – | inhibition at 6.25 µg/mL [5]: 99% |
| NC(=O)c1cnccn1 [PYRAZINAMIDE] | – | – | – | – | – | – | – | – | – | – | – | – | – | – | – | – | – | 6.25 (≈ 50.8 µM) | – | – | inhibition at 6.25 µg/mL [5]: 99% |
| CO[C@H]1/C=C/O[C@@]2(C)Oc3c(C)c(O)c4c(O)c(c(/C=N/N5CCN(C)CC5)c(O)c4c3C2=O)NC(=O)/C(C)=C\C=C\[C@H](C)[C@H](O)[C@@H](C)[C@@H](O)[C@@H](C)[C@H](OC(C)=O)[C@@H]1C [RIFAMPIN] | – | – | – | – | – | – | – | – | – | – | – | – | – | – | – | – | – | 0.25 (≈ 0.304 µM) | – | – | inhibition at 6.25 µg/mL [5]: 99% |
